Values of other authors, collected in patent US20170341994A1, “PLANT GROWTH REGULATOR AND A METHOD OF USING THE SAME” (GLUCAN BIOLOGICAL TECHNOLOGY CO., LTD, priority 2016, published 2017).

Tested on: tumor
Details: some studies

For β-glucan, the “inhibition of tumor growth” value is given as “more than 95%”.
